Reference: article PMC5572369 (Frontiers in Microbiology, 2017)

How the values were obtained:
[1] = target: T1, PrbP (Candidatus Liberibacter asiaticus, UniProt A0ABM5NE52)
T1 construct: gene WSI_01420

[2] = target: T1, PrbP; remark: listed apart in the source

With Cc1c(Cl)cccc1Nc1ccccc1C(=O)O [tolfenamic acid] the “% decrease in transcription at 500 μM” value [1] was 79% and the “concentration for complete disruption of PrbP/PrplK complex” value [2] was 350 µM.
